# Columns and labels:
# [1] = assay type: in vivo; conditions: intraperitoneal, bid for 4 days, tumored mice treated with IL-2; preliminary study
# [2] = tested on: renal cell carcinoma; assay: Clinical trial of LA plus IL-2 in patients with renal cell carcinoma (Example 6); assay type: in vivo, human
# Description: A preferred LA compound (as defined in Example 3) from drug substance lot # BA901 was supplied as 25 mg capsules Batch # 99G111 by BioMedicines, Inc. Each hard gelatin capsule contained 25 mg LA plus excipients including lactose hydrous NF; hydroxypropylmethylcellulose 2910, 6 cps USP; sodium lauryl sulfate NF; purified water, USP; and sodium chloride.
# Patients received IL-2 600,000 IU/kg by intravenous bolus three times daily during 5 days for a planned total of 14 doses. LA was administered orally 1 hour prior to each schedule dose of IL-2 as well as 8 hours after the final scheduled dose. If dose of IL-2 was withheld because of IL-2 induced toxicity, dosing with LA continued. Doses of LA ranged from 25 mg three times daily (TID) to 75 mg TID. Plasma levels of LA were obtained at each dose level.
# The principal activity endpoint was the relationship between the total number of doses of IL-2 that could be administered and well tolerated by patients and the plasma levels of LA. A second endpoint was the response rate in patients of the tumor to the combination therapy with the leukotriene B4 receptor antagonist and IL-2 as judged by complete responses (total disappearance of measurable tumor) or partial responses (a ≧50% decrease in measurable tumor volume).
# Data were analyzed by examining the significance of the correlation between number of doses of IL-2 and LA plasma level (Spearman's rho).
# [3] = tested on: B16/BL6 murine melanoma tumor cells; assay: Murine model of B16 melanoma lung metastases (Example 5); assay type: in vivo
# Description: The B16/BL6 murine melanoma tumor cells for injection were obtained from in vitro culture. Mice were inoculated with 3×10^5 cells intravenously on Day 0.
# Tumor cells were injected on Day 0. […] An additional group of 15 untreated control mice was used for timing the termination of the study. At Day 10, three untreated control mice were to be euthanized each day until tumor burden was determined to be optimal for counting metastatic foci, at which time the remaining rumored and five non-rumored mice were to be euthanized and lungs removed for determination of body weights, lung weights and numbers of metastatic foci.
# Anti-tumor activity was assessed by counts of metastatic foci in the lungs. Comparison among the three treatment groups (Groups 1, 2 and 3) was performed using one-way ANOVA (or Kruskal-Wallis one-way analysis of variance on ranks for data with non-normal distribution) with the three between-group comparisons performed using adjustment for multiple comparisons.
# [4] = tested on: IL-2-induced reduction in oxygenation; conditions: rat
# Description: Animals were weighed on the day of dosing and the appropriate doses of IL-2 and/or LA were calculated. The animals remained conscious throughout the experiment until an anesthetic was administered approximately 10 minutes before exsanguination. The anesthetic consisted of a mixture of ketamine (45 mg/ml) xylazine (2.5 mg/ml), and acepromazine (0.37 mg/ml) diluted with water and administered subcutaneously at a dose of 2.0 ml/kg.
# Group 1 (n=14) consisted of control animals that received both i.v. and i.p. injections of vehicle. The other five groups received i.v. injections of IL-2 via the tail vein. Groups 2 (n=8), 3 (n=4), and 4 (n=10) received IL-2 in doses of 1.5, 6.0, and 12.5 million IU(MIU)/kg, respectively. In addition to 12.5 million IU/kg of IL-2, Groups 5 (n=8) and 6 (n=13) received i.p. injections of the LA. The LA was administered in two equal, divided doses; the first dose of LA was given 20 minutes before administration of IL-2 and the second dose was given 50 minutes after administration of IL-2. Group 5 was administered 2×10 mg/kg of the LA. Group 6 was administered 2×30 mg/kg of the LA.
# Two hours after the IL-2 injection, the animals were exsanguinated via the abdominal aorta and the arterial blood was collected for measurement of PaO2.
# Whole arterial blood was collected into heparinized blood arterial gas syringes. Immediately after collection, the blood sample was analyzed using PaO2 electrode model DO-166FT. Sample blood was pre-oxygenated and used as a standard before and after each test sample.
# Data are shown as mean±SEM. Data were analyzed using the Tukey-Kramer test (JMP® statistical software from SAS, Inc.) Significance was defined as a p-value less than 0.05.
# [5] = Biomed 101 plasma levels in rats (HPLC); assay type: in vivo, Sprague Dawley rats; conditions: rat
# Description: In animals dosed with Biomed 101, plasma levels of Biomed 101 were assayed with a validated, high-pressure liquid chromatographic method.
# [6] = tested on: IL-2-induced toxicity; assay: Rat model of IL-2-induced toxicity, PaO2 (Example 4); conditions: Biomed 101 (20 or 60 mg/kg total i.p.) with IL-2 12.5 MIU/kg
# Description: (§1) Six groups of animals were studied (total N=59). […] The animals remained conscious throughout the experiment until an anesthetic was administered approximately 10 minutes before planned exsanguination. The anesthetic consisted of a mixture of ketamine (45 mg/ml), xylazine (2.5 mg/ml), and acepromazine (0.37 mg/ml) diluted with water and administered subcutaneously at a dose of 2.0 ml/kg.
# (§2) IL-2 or IL-2 vehicle was administered by bolus injection via the tail vein. […] Two hours after the injection of IL-2 or IL-2 vehicle, animals were exsanguinated via the abdominal aorta and the arterial blood was collected for measurement of PaO2.
# (§3) Group 1 (n=13) consisted of control animals that received injections of each vehicle, either i.v. or i.p. as appropriate. The other five groups received i.v. bolus injections of IL-2 via the tail vein. Groups 2 (n=8), 3 (n=5), and 4 (n=13) received IL-2 in doses of 1.5, 6.0, and 12.5 million IU/kg, respectively.
# The study was conducted in two phases.
# (§4) Whole arterial blood was collected into heparinized syringes. Immediately after collection, the blood sample was analyzed using a Lazar Research Laboratories flow-through dissolved-oxygen probe. The cell temperature was set to 37 degrees centigrade. A syringe pump was set to 0.5 ml/min to introduce the sample. The cell was zeroed using a solution of heparin and isotonic saline equilibrated with 100% nitrogen. The cell was then calibrated using a solution of heparin and isotonic saline equilibrated with 20% oxygen. After each PaO2 determination in whole blood was made, the cell was washed with heparin ad isotonic saline. A 20% O2 standard was introduced before each sample to ensure accurate and reliable measurements.
# (§5) If the data appeared to be normally distributed, the comparison was to be made using Student's t-test.
# [7] = tested on: LTB4 chemotaxis; assay: Inhibition of LTB4 chemotaxis (in vitro); assay type: cell-based
# [8] = tested on: LTB4-induced neutrophil granulation; assay: Inhibition of LTB4-induced neutrophil granulation; assay type: cell-based
# [9] = tested on: acetic acid colonic inflammation; assay: Inhibition of acetic acid colonic inflammation; assay type: in vivo; conditions: Rattus norvegicus, po; i.g.; read-out: Inhibition of acetic acid colonic inflammation in rats and guinea pig, ED50
# [10] = tested on: calcium ionophore dermal inflammation; assay: Inhibition of calcium ionophore dermal inflammation in the guinea pig ear; conditions: in vivo
# [11] = tested on: human neutrophil adhesion to LTB4-stimulated umbilical vein endothelial cells; assay: Inhibition of human neutrophil adhesion to LTB4-stimulated umbilical vein endothelial cells; assay type: cell-based
# [12] = tested on: LTB4 chemotaxis; assay: Inhibition of LTB4 chemotaxis in guinea pigs; assay type: in vivo; conditions: Cavia porcellus, po; i.g.
# [13] = tested on: LTB4 synthesis; assay: Inhibition of LTB4 synthesis; assay type: biochemical
# [14] = tested on: LTA4 conversion into LTB4; assay: Inhibition of LTA4 conversion into LTB4; assay type: biochemical
# [15] = tested on: 12 (R)-HETE; assay: Inhibition of 12 (R)-HETE in guinea pigs; assay type: in vivo; conditions: Cavia porcellus, po; i.g.
# [16] = tested on: IL-2-induced toxicity; conditions: rat, in vivo
# Description: as §1, §2, §3
# The study was conducted in two phases.
# as §4, §5
# [17] = tested on: renal cell carcinoma; conditions: IL-2 treatment alone; cited from earlier work
molecule,measurement,setting,value
"CCCc1c(OCCCOc2ccc(C(C)=O)c(OC)c2CCC)ccc2c1OC(C(=O)O)CC2 (racemic) [Biomed 101, (±)7-[3-(4-acetyl-3-methoxy-2-propylphenoxy)propoxy]-3,4-dihydro-8-propyl-2H-1-benzopyran-2-carboxylic acid]",highest tolerated dose,[1],25 mg/kg bid
same,number of doses of IL-2 withheld because of IL-2 toxicity as plasma level of LA increased,[2],decreased
same,total number of doses of IL-2 well tolerated as LA dose and plasma level rose,[2],rose
same,plasma level of LA with total daily dose,[2]; 25 mg TID to 75 mg TID orally,increased
same,Number of lung mets Mean (± SEM),"[3]; Day 10, IL-2 1 mg/kg iv, Biomed 101 25 mg/kg ip with IL-2, q6hx2, qdx4, vehicle control 98",56
same,effect of coadministration on the anti-tumor activity of IL-2,"[3]; mice, Biomed 101 25 mg/kg ip with IL-2",fully preserves and may enhance
same,effect of LA on the reduction in oxygenation induced by IL-2,"[4]; LA 2×10 or 2×30 mg/kg i.p. with IL-2 12.5 MIU/kg i.v., p>0.5 vs control, p<0.001 vs IL-2 alone",mitigated
same,mean plasma level (± standard error of the mean) of Biomed 101,[5]; 20 mg/kg Biomed 101 i.p. (2×10 mg/kg),2.0 (±0.26) μg/ml
same,mean plasma level (± standard error of the mean) of Biomed 101,[5]; 60 mg/kg Biomed 101 i.p. (2×30 mg/kg),6.4 (±0.89) μg/ml
same,Median PaO2 versus IL-2 alone,[6],significantly higher
same,Median PaO2 versus control animals,[6],not significantly different
same,"Inhibition of LTB4 chemotaxis, range",[7],0.3 to 3.0 µM
same,"Inhibition of LTB4-induced neutrophil granulation, range",[8],1 to 3 µM
same,ED50,[9],20 mg/kg
same,"Inhibition of calcium ionophore dermal inflammation in the guinea pig ear, ED50",[10],0.7 mg/ear
same,"Inhibition of human neutrophil adhesion to LTB4-stimulated umbilical vein endothelial cells, range",[11],0.3 to 1.0 µM
same,ED50,[12],0.6 mg/kg
same,IC50,[13],2.1 µM
same,IC50,[14],20 µM
same,ED50,[15],20 mg/kg
"des-alanyl-1, serine-125 human interleukin-2 [IL-2]",Median Lung Weight,"[3]; Day 10, vehicle control 174",177 mg
same,lung weights compared with vehicle control,[3]; Kruskal-Wallis,did not decrease
same,deaths,"[3]; mice, Group 2, IL-2 1 mg/kg iv, Day 4",one death
same,Changes in Metastases (mean) (N),[3]; treated group compared with control (untreated) group,−32 N
same,"arterial oxygen level (PaO2), mean±SEM","[4]; in vivo, iv",77.5±2.5 mm Hg
same,effect of progressively higher doses on arterial oxygen levels,"[4]; in vivo, iv",progressively reduced
same,Change in Oxygen (mean) (mm Hg),[16],−15 mm Hg
same,decrease of mean PaO2 for each increase of 1 MIU/kg in IL-2 administered,[16],approximately 1.8 mm Hg
same,effect on PaO2,[16],significant fall
same,objective response rate historically noted,[17],8-10%

# Source: patent US6423744B1, “Method of diminishing the adverse effects of interleukin-2” (Biomedicines, Inc., priority 1998, dated 2002)
